Measured values from patent US6413968B1, “Treatment of myasthenia gravis by cyclic nucleotide phosphodiesterase inhibition” (priority 2000, dated 2002).

System: diplopia and ptosis
Assay: Case report: patient with vertical diplopia and right ptosis treated orally
Assay type: in vivo, human
Text: A person presented with a three-week history of vertical diplopia that was incomitant and right ptosis.

Structure (SMILES)	resolution of diplopia and ptosis (same patient, after Mestinon failure, 25 mg tab four times daily)	time to resolution of diplopia and ptosis (same patient, 25 mg tab four times daily) [h]	relief of diplopia and ptosis (patient, three-week history of vertical diplopia and right ptosis, 60 mg three times daily)
CCCc1nn(C)c2c(=O)[nH]c(-c3cc(S(=O)(=O)N4CCN(C)CC4)ccc3OCC)nc12 [Sildenafil]	immediate resolution of dipolopia and ptosis	≤ 24	–
CN(C)C(=O)Oc1ccc[n+](C)c1 [Mestinon]	–	–	failed to relieve the diplopia or the ptosis
